According to patent US10780090B2, “Heteroaryl compounds useful as inhibitors of SUMO activating enzyme” (Millennium Pharmaceuticals, Inc., priority 2014, dated 2020):

Target: recombinant human SAE enzyme (Homo sapiens (Human), UniProt Q9UBT2)
Test: SAE HTRF enzyme assay
Assay type: biochemical
Settings: for inhibition at 0.111 µM: read-out: Percent Inhibition
Summary of the method: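 HTRF read-out using Eu-cryptate anti-Flag and allophycocyanin anti-GST antibodies, added with EDTA stop buffer and read after 2 h at 24 °C. The preceding reaction ran 105 min at 24 °C: 0.11 nM recombinant SAE, 0.5 μM ATP, Sumo-Flag, Ubc9-GST, pH 7.5. Values given as single-concentration inhibition or IC50.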

[1] = SAE inhibition at compound concentration 0.111 μM
[2] = SAE inhibition, class symbols, legend in nM

Chain of recombinant human SAE enzyme (Q9UBT2 whole entry): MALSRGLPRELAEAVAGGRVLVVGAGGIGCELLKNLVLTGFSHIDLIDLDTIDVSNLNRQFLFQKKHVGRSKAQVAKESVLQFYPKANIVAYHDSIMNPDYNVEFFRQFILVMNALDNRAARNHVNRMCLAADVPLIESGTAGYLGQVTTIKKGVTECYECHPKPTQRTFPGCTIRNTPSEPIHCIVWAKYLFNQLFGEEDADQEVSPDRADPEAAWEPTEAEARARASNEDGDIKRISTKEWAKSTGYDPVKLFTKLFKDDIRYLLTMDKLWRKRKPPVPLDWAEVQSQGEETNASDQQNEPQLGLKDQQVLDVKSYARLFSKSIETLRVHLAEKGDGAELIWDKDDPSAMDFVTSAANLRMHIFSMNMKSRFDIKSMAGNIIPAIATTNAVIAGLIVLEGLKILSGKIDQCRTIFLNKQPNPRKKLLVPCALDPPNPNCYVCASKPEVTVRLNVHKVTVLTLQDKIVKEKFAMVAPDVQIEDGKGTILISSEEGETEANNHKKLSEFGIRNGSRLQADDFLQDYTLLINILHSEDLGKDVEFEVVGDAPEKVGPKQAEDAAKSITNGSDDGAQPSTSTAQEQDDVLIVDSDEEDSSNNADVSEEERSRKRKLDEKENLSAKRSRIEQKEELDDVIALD
Chain of recombinant human SAE enzyme (Q9UBE0 whole entry partner): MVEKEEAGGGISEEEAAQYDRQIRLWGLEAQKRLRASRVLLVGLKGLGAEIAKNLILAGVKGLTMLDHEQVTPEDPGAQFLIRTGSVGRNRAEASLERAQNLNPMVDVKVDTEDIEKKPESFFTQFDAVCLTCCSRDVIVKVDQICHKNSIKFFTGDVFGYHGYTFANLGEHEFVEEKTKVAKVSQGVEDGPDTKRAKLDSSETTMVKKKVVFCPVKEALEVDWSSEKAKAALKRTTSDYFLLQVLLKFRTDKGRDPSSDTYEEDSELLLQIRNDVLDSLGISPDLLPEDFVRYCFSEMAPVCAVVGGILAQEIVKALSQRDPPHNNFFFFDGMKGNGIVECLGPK

Structure (SMILES) | Percent Inhibition (Concentration 0.111 μM) | IC50 (class symbols A/B/C) | Percent Inhibition [1] | IC50 [2] | inhibition at 0.111 µM (Concentration 0.111 μM)
Cc1sc(C(=O)c2cncnc2N[C@@H]2C[C@H](COS(N)(=O)=O)[C@@H](O)C2)cc1[C@@H]1OCCc2ccsc21 (mixture of isomers) [I-269, [(1R,2S,4R)-4-{[5-({4-[(7S)-4,7-dihydro-5H-thieno[2,3-c]pyran-7-yl]-5-methyl-2-thienyl}carbonyl)pyrimidin-4-yl]amino}-2-hydroxycyclopentyl]methyl sulfamate and [(1R,2S,4R)-4-{[5-({4-[(7R)-4,7-dihydro-5H-thieno[2,3-c]pyran-7-yl]-5-methyl-2-thienyl}carbonyl)pyrimidin-4-yl]amino}-2-hydroxycyclopentyl]methyl sulfamate] | 99 | < 10 nM |  |  | 
Cc1sc(C(=O)c2cncnc2N[C@@H]2C[C@H](COS(N)(=O)=O)[C@@H](O)C2)cc1[C@@H]1OCCn2cc(C(F)(F)F)nc21 (mixture of isomers) [I-337, [(1R,2S,4R)-2-hydroxy-4-{[5-({5-methyl-4-[(8S)-2-(trifluoromethyl)-5,6-dihydro-8H-imidazo[2,1-c][1,4]oxazin-8-yl]-2-thienyl}carbonyl)pyrimidin-4-yl]amino}cyclopentyl]methyl sulfamate and [(1R,2S,4R)-2-hydroxy-4-{[5-({5-methyl-4-[(8R)-2-(trifluoromethyl)-5,6-dihydro-8H-imidazo[2,1-c][1,4]oxazin-8-yl]-2-thienyl}carbonyl)pyrimidin-4-yl]amino}cyclopentyl]methyl sulfamate] |  |  | 89% | 10 to 100 nM | 
Cc1sc(C(=O)c2cncnc2N[C@@H]2C[C@H](COS(N)(=O)=O)[C@@H](O)C2)cc1Cn1cc(Br)cc1C#N [I-148, [(1R,2S,4R)-4-{[5-({4-[(4-bromo-2-cyano-1H-pyrrol-1-yl)methyl]-5-methyl-2-thienyl}carbonyl)pyrimidin-4-yl]amino}-2-hydroxycyclopentyl]methyl sulfamate] |  | < 10 nM |  |  | 91%
Cc1nn(Cc2csc(C(=O)c3cncnc3N[C@@H]3C[C@H](COS(N)(=O)=O)[C@@H](O)C3)c2)c2cnccc12 [I-160, [(1R,2S,4R)-2-hydroxy-4-{[5-({4-[(3-methyl-1H-pyrazolo[3,4-c]pyridin-1-yl)methyl]-2-thienyl}carbonyl)pyrimidin-4-yl]amino}cyclopentyl]methyl sulfamate] |  | < 10 nM |  |  | 92%
NS(=O)(=O)OC[C@H]1C[C@@H](Nc2ncncc2C(=O)c2cc([C@H](O)c3cc(Br)ccc3F)cs2)C[C@@H]1O (single isomer, unassigned) [I-19b, [(1R,2S,4R)-4-{[5-({4-[(R)-(5-bromo-2-fluorophenyl)(hydroxy)methyl]-2-thienyl}carbonyl)pyrimidin-4-yl]amino}-2-hydroxycyclopentyl]methyl sulfamate or [(1R,2S,4R)-4-{[5-({4-[(S)-(5-bromo-2-fluorophenyl)(hydroxy)methyl]-2-thienyl}carbonyl)pyrimidin-4-yl]amino}-2-hydroxycyclopentyl]methyl sulfamate] | 99 | < 10 nM |  |  | 
Cc1ccc2ccn(Cc3csc(C(=O)c4cncnc4N[C@@H]4C[C@H](COS(N)(=O)=O)[C@@H](O)C4)c3)c2c1 [I-132, [(1R,2S,4R)-2-hydroxy-4-{[5-({4-[(6-methyl-1H-indol-1-yl)methyl]-2-thienyl}carbonyl)pyrimidin-4-yl]amino}cyclopentyl]methyl sulfamate] |  | < 10 nM |  |  | 96%
C[C@@](O)(c1cccc(Cl)c1)c1cc(C(=O)c2cncnc2N[C@@H]2C[C@H](COS(N)(=O)=O)[C@@H](O)C2)sc1Cl (mixture of isomers) [I-102, [(1R,2S,4R)-4-{[5-({5-Chloro-4-[(1S)-1-(3-chlorophenyl)-1-hydroxyethyl]-2-thienyl}carbonyl)pyrimidin-4-yl]amino}-2-hydroxycyclopentyl]methyl sulfamate and [(1R,2S,4R)-4-{[5-({5-Chloro-4-[(1R)-1-(3-chlorophenyl)-1-hydroxyethyl]-2-thienyl}carbonyl)pyrimidin-4 yl]amino}-2-hydroxycyclopentyl]methyl sulfamate] | 94 | < 10 nM |  |  | 
NS(=O)(=O)OC[C@H]1C[C@@H](Nc2ncncc2C(=O)c2cc(CO)c(Cl)s2)C[C@@H]1O [I-211, {(1R,2S,4R)-4-[(5-{[5-Chloro-4-(hydroxymethyl)-2-thienyl]carbonyl}pyrimidin-4-yl)amino]-2-hydroxycyclopentyl}methyl sulfamate] |  | 100 to 1000 nM |  |  | 39%
Cc1cnn2c1[C@H](c1csc(C(=O)c3cncnc3N[C@@H]3C[C@H](COS(N)(=O)=O)[C@@H](O)C3)c1)OCC2 (mixture of isomers) [I-333, [(1R,2S,4R)-2-hydroxy-4-{[5-({4-[(4S)-3-methyl-6,7-dihydro-4H-pyrazolo[5,1-c][1,4]oxazin-4-yl]-2-thienyl}carbonyl)pyrimidin-4-yl]amino}cyclopentyl]methyl sulfamate and [(1R,2S,4R)-2-hydroxy-4-{[5-({4-[(4R)-3-methyl-6,7-dihydro-4H-pyrazolo[5,1-c][1,4]oxazin-4-yl]-2-thienyl}carbonyl)pyrimidin-4-yl]amino}cyclopentyl]methyl sulfamate] |  |  | 15% | 100 to 1000 nM | 
C[C@H](O)c1cc(C(=O)c2cncnc2N[C@@H]2C[C@H](COS(N)(=O)=O)[C@@H](O)C2)sc1Cl (mixture of isomers) [I-226, [(1R,2S,4R)-4-{[5-({5-Chloro-4-[(1S)-1-hydroxyethyl]-2-thienyl}carbonyl)pyrimidin-4-yl]amino}-2-hydroxycyclopentyl]methyl sulfamate and [(1R,2S,4R)-4-{[5-({5-Chloro-4-[(1R)-1-hydroxyethyl]-2-thienyl}carbonyl)pyrimidin-4-yl]amino}-2-hydroxycyclopentyl]methyl sulfamate] | 33 | 100 to 1000 nM |  |  | 
CN(C)[C@H](c1cccc(Cl)c1)c1csc(C(=O)c2cncnc2N[C@@H]2C[C@H](COS(N)(=O)=O)[C@@H](O)C2)c1 (single isomer, unassigned) [I-153b, [(1R,2S,4R)-4-{[5-({4-[(R)-(3-chlorophenyl)(dimethylamino)methyl]-2-thienyl}carbonyl)pyrimidin-4-yl]amino}-2-hydroxycyclopentyl]methyl sulfamate or [(1R,2S,4R)-4-{[5-({4-[(S)-(3-chlorophenyl)(dimethylamino)methyl]-2-thienyl}carbonyl)pyrimidin-4-yl]amino}-2-hydroxycyclopentyl]methyl sulfamate] | 92 | < 10 nM |  |  | 
NS(=O)(=O)OC[C@H]1C[C@@H](Nc2ncncc2C(=O)c2cc(Cn3ccc4ccc(C(F)(F)F)cc43)cs2)C[C@@H]1O [I-184, [(1R,2S,4R)-2-hydroxy-4-({5-[(4-{[6-(trifluoromethyl)-1H-indol-1-yl]methyl}-2-thienyl)carbonyl]pyrimidin-4-yl}amino)cyclopentyl]methyl sulfamate] |  | 10 to 100 nM |  |  | 85%
Cc1sc(C(=O)c2cncnc2N[C@@H]2C[C@H](COS(N)(=O)=O)[C@@H](O)C2)cc1CN1CCc2cc(Cl)ccc21 [I-159, [(1R,2S,4R)-4-{[5-({4-[(5-chloro-2,3-dihydro-1H-indol-1-yl)methyl]-5-methyl-2-thienyl}carbonyl)pyrimidin-4-yl]amino}-2-hydroxycyclopentyl]methyl sulfamate] |  | < 10 nM |  |  | 91%
CN(C)C(c1cccc(Cl)c1)c1csc(C(=O)c2cncnc2NC2CC(O)C(COS(N)(=O)=O)C2)c1 (mixture of isomers) [I-153, [(1R,2S,4R)-4-{[5-({4-[(R)-(3-Chlorophenyl)(dimethylamino)methyl]-2-thienyl}carbonyl)pyrimidin-4-yl]amino}-2-hydroxycyclopentyl]methyl sulfamate and [(1R,2S,4R)-4-{[5-({4-[(S)-(3-chlorophenyl)(dimethylamino)methyl]-2-thienyl}carbonyl)pyrimidin-4-yl]amino}-2-hydroxycyclopentyl]methyl sulfamate] | 86 | 10 to 100 nM |  |  | 
NS(=O)(=O)OC[C@H]1C[C@@H](Nc2ncncc2C(=O)c2ccc(Cc3cccc(Br)c3)o2)C[C@@H]1O [I-82, [(1R,2S,4R)-4-({5-[5-(3-bromobenzyl)-2-furoyl]pyrimidin-4-yl}amino)-2-hydroxycyclopentyl]methyl sulfamate] |  |  |  |  | 99%
Cc1sc(C(=O)c2cncnc2N[C@@H]2C[C@H](COS(N)(=O)=O)[C@@H](O)C2)cc1C1OCCc2ccc(C(F)(F)F)nc21 (single isomer, unassigned) [I-297a, [(1R,2S,4R)-2-hydroxy-4-{[5-({5-methyl-4-[(8S)-2-(trifluoromethyl)-5,8-dihydro-6H-pyrano[3,4-b]pyridin-8-yl]-2-thienyl}carbonyl)pyrimidin-4-yl]amino}cyclopentyl]methyl sulfamate or [(1R,2S,4R)-2-hydroxy-4-{[5-({5-methyl-4-[(8R)-2-(trifluoromethyl)-5,8-dihydro-6H-pyrano[3,4-b]pyridin-8-yl]-2-thienyl}carbonyl)pyrimidin-4-yl]amino}cyclopentyl]methyl sulfamate] |  |  | 31% | 100 to 1000 nM | 
NS(=O)(=O)OC[C@H]1C[C@@H](Nc2ncncc2C(=O)c2cc(C3NCCc4ccc(Cl)cc43)c(Cl)s2)C[C@@H]1O (single isomer, unassigned) [I-255a, [(1R,2S,4R)-4-{[5-({5-chloro-4-[(1R)-7-chloro-1,2,3,4-tetrahydroisoquinolin-1-yl]-2-thienyl}carbonyl)pyrimidin-4-yl]amino}-2-hydroxycyclopentyl]methyl sulfamate or [(1R,2S,4R)-4-{[5-({5-chloro-4-[(1S)-7-chloro-1,2,3,4-tetrahydroisoquinolin-1-yl]-2-thienyl}carbonyl)pyrimidin-4-yl]amino}-2-hydroxycyclopentyl]methyl sulfamate] | 93 | 10 to 100 nM |  |  | 
